In patent EP4793271A1, “NEUROPROTECTIVE AGENT” (National Center of Neurology and Psychiatry, priority 2023, dated 2025):

Assays:
[1] = system: primary cultured cells of mouse fetus-derived dorsal root ganglia (DRGs); experiment: Suppression of axonal degeneration after axotomy in DRG explant culture; assay type: cell-based; conditions: Mus musculus; minimum concentration at which axonal degeneration was suppressed (DI 0.3 or less); 24 hours after axotomy; read-out: Evaluation on protection against degeneration
Method: The compound of the present invention was studied for its protective effect against axonal injury using primary cultured cells of mouse fetus-derived dorsal root ganglia (DRGs).
DRGs were collected from a fetus derived from an ICR mouse (13.5 days of pregnancy). DRGs were cultured using a plate coated by incubation with 0.1 mg/mL poly-L-lysine at 4°C for 24 hours or longer, washing with PBS, and then incubation with 2.5 µg/mL Cultrex Mouse Laminin I at 37°C for 4 to 6 hours.
One of DRGs collected was plated to each well of the coated 24-well plate. The DRG was cultured in a nicotinamide-free medium for neuron (supplemented with 10% FBS, 1 mM glutamine, 50 ng/mL NGF2.5S, and penicillin-streptomycin) for 24 hours at maximum from the start of culture and then cultured in a nicotinamide-free medium for neuron (supplemented with 2% MACS NeuroBrew-21, 50 ng/mL NGF2.5S, 1% Glutamax, 20 µM uridine, 20 µM 5-fluoro-2'-deoxyuridine, and penicillin-streptomycin) for 7 to 8 days.
The nicotinamide-free medium for neuron was prepared so as to have the same constituents as those of the composition published in a previously reported paper (Brewer et al., J. Neuroscience Research 35: 567-576) except for nicotinamide with reference to this composition.
The test compound is dissolved in DMSO and added to cells such that the final concentration of DMSO is 0.1% (1000-fold dilution). 10 mM, 1 mM, 100 µM, 10 µM, 1 µM, and 100 nM samples of the test compound are prepared and added at a 1000-fold dilution to cells.
Axotomy was carried out by scooping out a cell body portion of the cultured DRG with a chip for a micropipette. The test compound was added at the following concentrations (final concentration: 10 µM, 1 µM, 100 nM, 10 nM, 1 nM, and 100 pM) within 30 minutes after axotomy. The compound was evaluated for its protective effect against axonal degeneration by imaging (Leica DMIL microscope, 20× objective lens) the state of neurites 24 hours after axotomy and evaluating the degree of degeneration. The degree of degeneration was quantified using a program uniquely developed using the R language. A degeneration index (DI) was used as an indicator for the degree of degeneration, and the ratio of the area of a fragmented axon to the total area of axons was calculated as defined in the equation of Expression 2. Suppressed axonal degeneration was evaluated when the value of DI was 0.3 or less. The minimum concentration at which axonal degeneration was suppressed was determined for each compound. Degeneratioin index (DI) = (Degenerated axons)/(All axons) [formula]
The axonal protective activity was evaluated as A ≤ 0.01 µM, 0.01 µM < B ≤ 0.1 µM, and 0.1 µM < C ≤ 1 µM depending on the minimum concentration at which axonal degeneration was suppressed.

[2] = target: T1, nicotinamide phosphoribosyl transferase (NAMPT) (Homo sapiens, UniProt P43490); experiment: NAMPT activity measurement (NMN fluorescence detection); assay type: biochemical; conditions: NAMPT recombinant protein, 10 µM Nam; for IC50: read-out: Evaluation on NAMPT inhibitory
T1 construct: purchased Medical & Biological Laboratories Co., Ltd. (MBL)
Method: The compound of the present invention was evaluated for the ability to influence the activity of nicotinamide phosphoribosyl transferase (NAMPT) which is an enzyme that metabolizes nicotinamide (Nam), not the target SARM1.
The enzymatic reaction of NAMPT was carried out by adding NAMPT recombinant protein (manufactured by Medical & Biological Laboratories Co., Ltd. (MBL)) to a reaction solution containing the substrate Nam, phosphoribosylpyrophosphate (PRPP), ATP, and the like (composition: […] (pH = 7.4), 2 µM ATP, 0.5 µM PRPP, 0.02% BSA, 2 µM DTT, 1.2 µM MgCl2, and 10 µM Nam). The amount of the reaction product NMN was detected by detecting the fluorescent signal of a fluorescent substance obtained through the reaction of 2-acetylbenzofuran with NMN using SpectraMax M2 (Molecular Devices) (excitation: 421 nm, fluorescence: 480 nm) (Moriya et al, Chemical Communications 2013, 49 11500). The test compound was added at final concentrations of 10 µM, 3 µM, 1 µM, 300 nM, 100 nM, 30 nM, 10 nM, and 3 nM to the NMN synthesis reaction system described above. The NMN-derived fluorescent signal was normalized against a control group and plotted as the function of the test compound concentrations, and the compound was evaluated for its NAMPT inhibitory effect by calculating IC50.
The IC50 value was evaluated as ∘ for ≥1 µM and as Δ for ≥0.1 µM.

hSARM1 = target: T2, hSARM1 (Homo sapiens, UniProt Q6SZW1); experiment: Human SARM1 activity measurement in HEK293 cells transiently transfected with ΔN-hSARM1 (PC6 fluorescent probe); assay type: cell-based; design: expressed in transfected cells; host or cells: HEK293, pcDNA3 expression vector; conditions: inhibition rate; compound 30 µM; PC6 50 µM; HEK293 cells expressing ΔN-hSARM1; approximately 48 hours from transfection; read-out: Evaluation on hSARM1 inhibitory
T2 sequence (Q6SZW1 28-724): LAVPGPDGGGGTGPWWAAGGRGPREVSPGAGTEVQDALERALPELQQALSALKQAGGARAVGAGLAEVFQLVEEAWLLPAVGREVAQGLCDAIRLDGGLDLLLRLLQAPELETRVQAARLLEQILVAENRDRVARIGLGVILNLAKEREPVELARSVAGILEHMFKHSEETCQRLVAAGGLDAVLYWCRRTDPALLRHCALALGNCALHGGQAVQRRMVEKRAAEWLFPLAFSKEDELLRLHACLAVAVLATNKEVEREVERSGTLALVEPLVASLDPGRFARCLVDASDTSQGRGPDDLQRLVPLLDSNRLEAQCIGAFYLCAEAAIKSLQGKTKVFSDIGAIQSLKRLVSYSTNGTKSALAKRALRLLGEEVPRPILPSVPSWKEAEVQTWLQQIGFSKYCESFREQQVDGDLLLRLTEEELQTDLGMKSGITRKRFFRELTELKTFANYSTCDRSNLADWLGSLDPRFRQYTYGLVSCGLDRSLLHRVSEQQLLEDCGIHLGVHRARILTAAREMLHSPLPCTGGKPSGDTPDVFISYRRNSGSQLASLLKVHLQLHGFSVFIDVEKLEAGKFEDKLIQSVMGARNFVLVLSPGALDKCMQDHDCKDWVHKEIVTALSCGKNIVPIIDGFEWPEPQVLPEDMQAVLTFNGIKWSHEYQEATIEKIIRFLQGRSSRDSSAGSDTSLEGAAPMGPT
Method: HEK293 cells cultured in a prepared medium of nicotinamide-free DMEM (Dulbecco's modified Eagle medium) supplemented with 10% FBS (BioSera), a 1% penicillin-streptomycin solution (FUJIFILM Wako Pure Chemical Corp.), 5 μM nicotinamide were inoculated at approximately 50,000 cells/well to a 96-well microplate, and the cells were cultured at 37°C under 5% CO2, transiently transfected on the next day with a pcDNA3 expression vector containing a DNA sequence (SEQ ID NO: 1) deficient in a mitochondrial targeting sequence encoded by an N-terminal 78-base sequence in cDNA encoding human sterile α- and armadillo-motif-containing protein (hSARM1) using PEI MAX(R) reagent (PolySciences Inc.), and forced to express ΔN-hSARM1 (SEQ ID NO: 2). Approximately 8 hours later, PC6, which reacts as a substrate of SARM1-specific base exchange reaction and functions as a fluorescent probe, was added thereto at a final concentration of 50 μM, and intracellular hSARM1 activity was measured (Li et al, eLife 2021 10: e67381). A compound for inhibitory activity evaluation was added at a final concentration of 30 μM at the same time with PC6, while dimethyl sulfoxide (Nacalai Tesque Inc.) was added to samples of a control group at the same time with PC6. The cells were incubated at 37°C under 5% CO2 for approximately 48 hours from transfection, followed by fluorescent signal measurement using SpectraMax M2 (Molecular Devices) (excitation: 405 nm, fluorescence: 525 nm, fluorescence cutoff: 515 nm). Results of this screening are reported as an inhibition rate (%) relative to a negative control defined as follows by using fluorescence intensity measured from a control group without transfection with ΔN-hSARM1 as a background whereas using fluorescence intensity measured from a control group transfected with ΔN-hSARM1 as the negative control. Inhibitory rate (%) = 100-(([…]-Background))/((Signalofthenegativecontrol-Background)) × 100 [formula] The nicotinamide-free medium was prepared so as to have the same composition as that of DMEM having known composition which is generally used in the art except for nicotinamide. […]

T1 sequence (P43490 whole entry, species assumed): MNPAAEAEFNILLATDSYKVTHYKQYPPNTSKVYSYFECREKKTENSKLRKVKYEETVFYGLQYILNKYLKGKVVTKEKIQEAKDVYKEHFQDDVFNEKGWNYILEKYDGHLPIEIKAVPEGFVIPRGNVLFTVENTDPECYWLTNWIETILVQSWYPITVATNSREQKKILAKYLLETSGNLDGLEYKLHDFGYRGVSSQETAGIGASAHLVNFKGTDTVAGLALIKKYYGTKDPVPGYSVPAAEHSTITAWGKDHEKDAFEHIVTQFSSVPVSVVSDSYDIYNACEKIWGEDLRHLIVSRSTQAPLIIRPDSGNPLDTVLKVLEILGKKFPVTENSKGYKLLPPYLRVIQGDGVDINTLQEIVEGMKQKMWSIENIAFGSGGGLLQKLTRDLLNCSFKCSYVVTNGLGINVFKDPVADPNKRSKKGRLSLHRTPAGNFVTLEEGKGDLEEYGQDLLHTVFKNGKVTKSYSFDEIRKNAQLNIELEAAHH

| SMILES | minimal effective concentration [1] [µM] | IC50 [2] [nM] | inhibition at 30 µM (hSARM1) [%] | Evaluation on NAMPT inhibitory [2] |
| --- | --- | --- | --- | --- |
| CN(C)c1ccc(/C=C/C(=O)Nc2ccc(CNC(=O)c3cccnc3)cn2)cc1 [Compound 181] | ≤ 0.01 | ≥ 100 |  |  |
| O=C(/C=C/c1cccnc1)NCc1ccccc1NC(=O)/C=C/c1cccnc1 [compound 60] |  |  | > 10 | ○ |
| O=C(NCc1ccc(NC(=O)c2cccc3ccccc23)nc1)c1cccnc1 [Compound 121] | 0.01 to 0.1 | ≥ 100 |  |  |
| NCc1cccc(CNC(=O)c2cccnc2)n1 [Compound 148] | 0.1 to 1 |  |  | ○ |
| CCNC(=O)C(CCCCNC(=O)c1cccnc1)NC(=O)c1cccnc1 (stereo not drawn) [compound 47] |  |  |  | ○ |
| O=C(NCCN(CCNC(=O)c1cccnc1)C(=O)c1cccnc1)c1cccnc1 [compound 36] |  |  | > 10 | ○ |
| O=C(NCc1ccc(NS(=O)(=O)c2ccccc2)nc1)c1cccnc1 [compound 79] |  |  | > 10 | ○ |
| O=C(NCCCCC(NC(=O)c1cccnc1)C(=O)O)c1cccnc1 (stereo not drawn) [compound 45] |  |  |  | ○ |
| NC(=O)C(CCCNC(=O)c1cccnc1)NC(=O)c1cccnc1 (stereo not drawn) [compound 50] |  |  |  | ○ |
| O=C(NCc1cccc(CNC(=O)c2cc(F)cc(F)c2)n1)c1cccnc1 [Compound 152] |  |  | > 25 | ○ |
| NCCOCCOCCNC(=O)c1cccnc1 [compound 107] | ≤ 0.01 |  |  | ○ |
| CCNC(=O)C(CCCNC(=O)c1cccnc1)NC(=O)c1cccnc1 (stereo not drawn) [compound 51] |  |  |  | ○ |
| O=C(NCCCCCC1CCN(CCO)CC1)c1cccnc1 [compound 2] | ≤ 0.01 | ≥ 100 |  |  |
| CN(CCCCCCN(C)C(=O)c1cccnc1)C(=O)c1cccnc1 [compound 102] | ≤ 0.01 |  |  | ○ |
| O=C(NCCCC(NC(=O)c1cccnc1)C(=O)O)c1cccnc1 (stereo not drawn) [compound 49] |  |  |  | ○ |
| O=C(/C=C/c1cccnc1)NCCOCCOc1ccc(CNC(=O)c2cccnc2)cc1 [compound 55] | ≤ 0.01 |  | > 75 |  |
| O=C(NCc1ccc(NC(=O)C23CC4CC(CC(C4)C2)C3)nc1)c1cccnc1 [Compound 142] | 0.01 to 0.1 |  | > 75 |  |
| COC(=O)C(CCCCNC(=O)c1cccnc1)NC(=O)c1cccnc1 (stereo not drawn) [compound 44] |  |  |  | ○ |
| COC(=O)C(CCCNC(=O)c1cccnc1)NC(=O)c1cccnc1 (stereo not drawn) [compound 48] | 0.1 to 1 |  |  | ○ |
| NC(=O)C(CCCCNC(=O)c1cccnc1)NC(=O)c1cccnc1 (stereo not drawn) [compound 46] |  |  |  | ○ |
| C/C(=C\C(=O)NCCCCCCNC(=O)/C=C(\C)c1cccnc1)c1cccnc1 [compound 42] | ≤ 0.01 |  | > 75 |  |
| O=C(Nc1ccc(CCc2ccc(NC(=O)c3cccnc3)cc2)cc1)c1cccnc1 [compound 101] | ≤ 0.01 |  | > 75 |  |
| O=C(Cc1ccc(C(F)(F)F)cc1)Nc1ccc(CNC(=O)c2cccnc2)cn1 [compound 89] | ≤ 0.01 |  | > 75 |  |
| O=C(NCCCCCCCCOCCOc1ccc([N+](=O)[O-])c2nonc12)c1cccnc1 [compound 5] | ≤ 0.01 | ≥ 100 |  |  |
| O=C(/C=C/c1cccnc1)Nc1ccc(NC(=O)/C=C/c2cccnc2)cc1 [compound 58] | ≤ 0.01 |  | > 75 |  |
| O=C(Nc1ccccc1CCc1ccccc1NC(=O)c1cccnc1)c1cccnc1 [compound 100] | 0.01 to 0.1 |  |  | ○ |
| O=C(/C=C/c1cccnc1)NCc1ccc(NC(=O)c2ccccc2)nc1 [compound 77] | ≤ 0.01 |  | > 75 |  |
| O=C(/C=C/c1cccnc1)NCCCOc1ccc(CNC(=O)c2cccnc2)cc1 [compound 53] | ≤ 0.01 |  | > 75 |  |
| O=C(CCc1ccc(OC(F)(F)F)cc1)Nc1ccc(CNC(=O)c2cccnc2)cn1 [Compound 170] | ≤ 0.01 |  | > 75 |  |
